Key:
Format in all cases: cell-based
A375-PLX-R cells = assay: Cell proliferation, PLX4032-resistant A375-PLX-R cells; details: ERK1/2 inhibitor treatment, FIG. 5H
Experimental: (§1) A375, SK-MEL-5 and SK-MEL-28 cell lines were maintained in DMEM growth medium containing 10% FCS, 2 mM L-glutamine and 1 mM sodium pyruvate. The WM3248 cells were maintained in MCDB153:L15 (4:1) growth medium containing 2% FCS, […] insulin and 1.68 mM CaCl2. To create PLX4032-resistant cells, A375, SK-MEL-5, SK-MEL-28 and WM3248 cells were treated with […] in monolayer culture in growth medium for several weeks. The surviving cells were then expanded and cultured in increasing doses of PLX4032 up to […]. The resulting PLX4032-resistant cells, designated PLX4032-resistant (e.g., A375-PLX-R) were routinely maintained in the presence of […] PLX4032.

[1] = test system: SKMELS-PLX-R, SKMEL28-PLX-R and WM3248-PLX-R cells; assay: Cell proliferation, other PLX4032-resistant lines; details: ERK1/2 inhibitor treatment, FIG. 5I
Experimental: as §1
This predicts that the BRAF inhibitors-resistant cells should remain sensitive to ERK1/2 inhibitors. To assess the role of ERK1/2 PLX4032 resistant cells were treated with SCH772984, a specific inhibitor of ERK1/2 (31), and the impact on cell proliferation was monitored.

[2] = test system: YAP1, TAZ and TEAD in A375 and A375-PLX-R cells; assay: YAP1/TAZ/TEAD mRNA and protein level after verteporfin, monolayer cells; details: proteasome inhibitor with verteporfin, FIG. 4I
Experimental: Equivalent amounts of protein were electrophoresed on denaturing and reducing 10% polyacrylamide gels and transferred to nitrocellulose membrane. The membrane was blocked by 5% nonfat dry milk for one hour and incubated with 1:1000 primary antibody in 5% nonfat dry milk. Blots were rinsed in TBS-T and then incubated with secondary antibodies (1:5000) for 2 h. Secondary antibody binding was visualized using ECL Prime (Amersham) chemiluminescence detection technology. For immunostaining, cells were harvested, suspended in growth medium, and plated in LAB-TEK II Chamber Slide System. After 24 h, the cells were fixed with 4% paraformaldehyde at room temperature for 15 min, washed three with phosphate-buffered saline, in 0.1% Triton X-100 for 15 min, washed with phosphate-buffered saline, and blocked for 1 h with phosphate-buffered saline containing 7.5% fetal calf serum. Primary antibodies were added, and the slides incubated overnight at 4° C. Cells were then washed three times with phosphate-buffered saline and incubated 1 h with the appropriate Alexa Flour fluorescence probe-conjugated secondary antibody. After additional washing, the cells were stained with DAPI for 10 min prior to imaging.
Total RNA was isolated using Illustra RNAspin mini kit (GE Healthcare), and 1 μg of RNA was used for cDNA synthesis. Gene expression was measured by real time PCR using Light Cycler 480 SYBR Green I Master Mix (04-707 516 001) from Roche Diagnostics (Indianapolis, Ind.). The signals were normalized using cyclophilin A control primers. The gene specific primers used for detection of mRNA levels were as follows: cyclophilin A (forward, 5′-[…] (SEQ ID NO: 3); reverse, 5′-[…] (SEQ ID NO: 4)), TAZ (forward, 5′-GTATCCCAGCCAATC TCG (SEQ ID NO: 5); reverse, 5′-TTCTGAGTGGGGTGGTTC (SEQ ID NO: 6)) and YAP1 (forward, 5′-[…] (SEQ ID NO: 7); reverse, 5′-[…], (SEQ ID NO: 8)) (11).
To understand the mechanism of verteporfin action, monolayer A375 and A375-PLX-R cells were treated with […] verteporfin for 24 h and the impact on YAP1/TAZ mRNA and protein level was monitored. […] The proteasome is known to regulate YAP1/TAZ level (29,30) and so whether the proteasome was responsible for the observed reductions was examined.

Row | SMILES | A375-PLX-R cells number (A375-PLX-R cells) | proliferation of PLX4032-resistant cells [1] | reversal of verteporfin-dependent reduction in YAP1, TAZ and TEAD level [2]
1 | O=C(Nc1ccc2[nH]nc(-c3ccncc3)c2c1)[C@@H]1CCN(CC(=O)N2CCN(c3ccc(-c4ncccn4)cc3)CC2)C1 [SCH772984] | time-dependent reduction | reduced | 
2 | CC(=O)N[C@@H](CSC(=O)[C@]1([C@@H](O)C(C)C)NC(=O)[C@H](C)[C@@H]1O)C(=O)O [lactacystin] |  |  | not reversed

From patent US11246856B2, “Methods of treating resistant cancers” (University of Maryland, Baltimore, priority 2017, dated 2022)
